The values below come from paper PMC2164953, “Flexible synthesis of poison-frog alkaloids of the 5,8-disubstituted indolizidine-class. II: Synthesis of (-)-209B, (-)-231C, (-)-233D, (-)-235B", (-)-221I, and an epimer of 193E and pharmacological effects at neuronal nicotinic acetylcholine receptors” (Beilstein Journal of Organic Chemistry, 2007).

For experiment [1], the target named is T1, α4β2 nicotinic receptor (Homo sapiens, UniProt P17787+P43681).
T1 construct: expressed in transfected cells; host or cells: Xenopus laevis oocytes (nuclear cDNA injection)
The experiment is described as follows: Two-electrode voltage-clamp recording of ACh-induced currents in X. laevis oocytes expressing recombinant α4β2 nicotinic receptor. The format is cell-based. How it is done:
(§1) Figure 1 Inhibitory effect of (-)-231C on ACh-induced currents in X. laevis oocytes expressing recombinant nicotinic receptors. Currents were recorded in the voltage-clamp mode at -60 mV. Concentrations of ACh used were 1 μM for the α4β2 receptor and 100 μM for the α7 receptor. For test responses, oocytes were preincubated with (-)-231C for 3 min and then exposed to ACh with (-)-231C. A, representative traces showing the ACh-elicited currents in the absence and presence of (-)-231C (3 μM). Horizontal bars indicate the period of perfusion with ACh for 5 s. Vertical scale bars represent 0.5 μA on the α4β2 receptor, and 0.1 μA on the α7 receptor. B, concentration-response curves for (-)-231C on recombinant nicotinic receptors. Current responses to ACh in the presence of (-)-231C in each oocyte were normalized to the ACh responses (control responses) recorded in the same oocytes. Values represent the mean ± S.E.M. for five to six separate experiments.
as §1, with “Figure 2” for “Figure 1”, “of (-)-221I” for “of (-)-231C”, “with (-)-221I” for “with (-)-231C”, “with (-)-221I.” for “with (-)-231C.”, “for (-)-221I” for “for (-)-231C”, “five” for “five to six”
as §1, with “Figure 3” for “Figure 1”, “of (-)-epi-193E” for “of (-)-231C”, “with (-)-epi-193E” for “with (-)-231C”, “with (-)-epi-193E.” for “with (-)-231C.”, “for (-)-epi-193E” for “for (-)-231C”, “five” for “five to six”
(§2) Xenopus laevis oocytes were prepared as described previously. In brief, stage V-VI oocytes were isolated and microinjected with cDNAs encoding nicotinic receptor subunit into the nucleus. The α7 subunit cDNA was injected alone, whereas the mixture of α4 and β2 subunit cDNAs was injected in a ratio of 1:1. Oocytes were cultured at 19 °C for 3-7 days. An oocyte was placed in a tube-like chamber in which Ringer’s solution (82.5 mM NaCl, 2.5 mM KCl, 2.5 mM CaCl2, 1 mM MgCl2, and 5 mM HEPES, pH 7.4) containing 1 µM atropine was perfused by gravity (15 ml/min). Current responses were recorded under two-electrode voltage-clamp method. To apply a pulse of acetylcholine (ACh) to the oocyte, the perfusion fluid was switched to solution containing ACh, using a three-way Teflon solenoid valve (Parker Hannifin Corp., General Valve Division, Fairfield, NJ) controlled by a PC computer with pClamp7 software (Axon Instruments, Union City, CA). […]
(In two-electrode clamp one electrode senses voltage and the other passes current.)

The target in a further experiment is T2, α7 nicotinic receptor (Homo sapiens, UniProt P36544).
T2 construct: expressed in transfected cells; host or cells: Xenopus laevis oocytes (nuclear cDNA injection)
The experiment is described as follows: Two-electrode voltage-clamp recording of ACh-induced currents in X. laevis oocytes expressing recombinant α7 nicotinic receptor. The format is cell-based. Particulars: for fold higher potency for blockade of α7 than of α4β2 receptor: ratio of IC50 values, α7 over α4β2. The method, then:
as §1
as §1, with “Figure 2” for “Figure 1”, “of (-)-221I” for “of (-)-231C”, “with (-)-221I” for “with (-)-231C”, “with (-)-221I.” for “with (-)-231C.”, “for (-)-221I” for “for (-)-231C”, “five” for “five to six”
as §1, with “Figure 3” for “Figure 1”, “of (-)-epi-193E” for “of (-)-231C”, “with (-)-epi-193E” for “with (-)-231C”, “with (-)-epi-193E.” for “with (-)-231C.”, “for (-)-epi-193E” for “for (-)-231C”, “five” for “five to six”
as §2

The target in experiment [2] is T1, α4β2 nicotinic receptor. The arrangement: method as in PMID 15258256. Particulars: cited from earlier work.
Experiment [3] has as its system nicotinic acetylcholine receptors. More on the design: method as in PMID 1815137. Particulars: cited from earlier work.

In general, IC50 refers to the concentration at which inhibition is half-maximal.

Several values for one entry are separate records, joined by “and”; a condition that tells them apart may be missing. Equal entries are not always repeated.

T1 sequence (P43681 29-627 limits assumed): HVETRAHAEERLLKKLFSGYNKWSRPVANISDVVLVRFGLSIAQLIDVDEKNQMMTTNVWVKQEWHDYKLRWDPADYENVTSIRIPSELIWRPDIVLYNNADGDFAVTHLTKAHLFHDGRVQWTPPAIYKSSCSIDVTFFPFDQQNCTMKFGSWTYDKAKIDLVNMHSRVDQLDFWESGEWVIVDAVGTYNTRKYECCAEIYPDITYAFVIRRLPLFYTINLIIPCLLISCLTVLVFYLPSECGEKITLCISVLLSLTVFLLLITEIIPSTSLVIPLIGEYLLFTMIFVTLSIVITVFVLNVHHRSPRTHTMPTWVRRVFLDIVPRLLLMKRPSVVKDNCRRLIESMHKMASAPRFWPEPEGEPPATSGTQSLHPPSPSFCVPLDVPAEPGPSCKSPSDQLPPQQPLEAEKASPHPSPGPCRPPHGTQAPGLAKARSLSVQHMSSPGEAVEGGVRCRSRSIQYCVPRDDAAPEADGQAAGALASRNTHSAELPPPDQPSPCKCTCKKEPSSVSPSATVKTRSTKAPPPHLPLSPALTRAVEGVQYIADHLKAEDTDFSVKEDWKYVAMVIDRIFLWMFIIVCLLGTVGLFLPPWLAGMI
T1 sequence (P17787 26-502): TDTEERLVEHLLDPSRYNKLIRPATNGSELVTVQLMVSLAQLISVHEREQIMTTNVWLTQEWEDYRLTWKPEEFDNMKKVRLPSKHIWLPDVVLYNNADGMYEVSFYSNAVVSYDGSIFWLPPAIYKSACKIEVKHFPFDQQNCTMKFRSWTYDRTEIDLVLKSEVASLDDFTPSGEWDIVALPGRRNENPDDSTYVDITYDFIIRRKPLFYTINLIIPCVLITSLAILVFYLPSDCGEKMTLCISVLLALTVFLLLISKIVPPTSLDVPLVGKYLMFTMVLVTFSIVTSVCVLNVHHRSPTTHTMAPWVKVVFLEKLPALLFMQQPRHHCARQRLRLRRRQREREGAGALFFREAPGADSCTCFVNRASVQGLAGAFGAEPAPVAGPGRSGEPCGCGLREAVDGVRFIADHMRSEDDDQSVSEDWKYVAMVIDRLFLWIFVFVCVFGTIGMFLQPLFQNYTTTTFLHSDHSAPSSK
T2 sequence (P36544 23-502): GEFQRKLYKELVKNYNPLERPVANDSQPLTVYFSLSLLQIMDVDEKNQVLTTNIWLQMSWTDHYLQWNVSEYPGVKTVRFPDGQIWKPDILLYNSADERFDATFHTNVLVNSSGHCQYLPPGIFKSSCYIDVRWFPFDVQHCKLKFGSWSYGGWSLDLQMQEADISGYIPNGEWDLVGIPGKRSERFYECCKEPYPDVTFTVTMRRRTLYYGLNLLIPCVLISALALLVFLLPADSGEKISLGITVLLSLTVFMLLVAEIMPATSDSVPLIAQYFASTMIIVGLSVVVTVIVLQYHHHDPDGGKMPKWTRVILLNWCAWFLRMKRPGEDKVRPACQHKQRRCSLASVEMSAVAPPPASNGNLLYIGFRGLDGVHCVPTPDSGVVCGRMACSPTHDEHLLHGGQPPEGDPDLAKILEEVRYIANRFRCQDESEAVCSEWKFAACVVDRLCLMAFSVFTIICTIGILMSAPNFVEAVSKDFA

Regarding `CCC=CCC1CCC(CC)C2CCCN12` (single isomer, unassigned; (-)) [(-)-221I], the IC50 on α4β2 nicotinic receptor [1] was determined as 23.1 µM. In addition, at α7 nicotinic receptor, the IC50 came to 4.4 µM and the “fold higher potency for blockade of α7 than of α4β2 receptor” value came to 5.3 fold.

Regarding `C=CCC1CCC(CC)C2CCCN12` (single isomer, unassigned; (-)) [(-)-epi-193E], the IC50 on α4β2 nicotinic receptor [1] came out at 18 µM; on α7 nicotinic receptor it was 9.1 µM. Besides, the “fold higher potency for blockade of α7 than of α4β2 receptor” value at α7 nicotinic receptor was 2.0 fold.

Turning to `CC/C=C\CCC[C@@H]1CC[C@@H](C)[C@@H]2CCCN12` [(-)-235B", (5R,8R,9S)-(-)-5-Hept-4-enyl-8-methyloctahydroindolizine], the “potency in blocking the α4β2 receptor relative to (-)-231C” value at α4β2 nicotinic receptor [1] (fold greater than (-)-231C, previous (ref 3) versus present data) was “approximately 20 fold”. Further, the “selectivity for blockade of α4β2 over α7 receptor” value at α4β2 nicotinic receptor [2] (previous data) is 6- to 7 fold. Further, the “effect at the α4β2 nicotinic receptor” value at α4β2 nicotinic receptor [2] (several nicotinic receptor subtypes tested) is “selective and potent blocking effects”. The “potency at α4β2 receptor compared with dihydro-β-erythroidine” value at α4β2 nicotinic receptor [2] (versus classical α4β2 competitive antagonist) is given as “comparable”. In addition, the “mode of action at nicotinic receptors” value in experiment [3] is “noncompetitive nicotinic blockers”.

Regarding `C#C/C=C\CCC[C@@H]1CC[C@@H](C)[C@@H]2CCCN12` [(-)-231C, (5R,8R,9S)-(-)-5-Hept-4-en-6-ynyl-8-methyloctahydroindolizine], the IC50 was found to be 1.5 µM on α4β2 nicotinic receptor [1] and 10.7 µM on α7 nicotinic receptor. At α4β2 nicotinic receptor [1] (3 μM compound, oocytes expressing α4β2 receptor), the “peak amplitude of ACh-elicited currents” value is reported as “greatly decreased”. In addition, the “fold higher sensitivity/potency for blockade of α4β2 than of α7 receptor” value at α4β2 nicotinic receptor [1] (ratio of IC50 values, α4β2 over α7) is 7.0 fold and 6- to 7 fold. The ACh-elicited responses entry on α7 nicotinic receptor (3 μM compound, oocytes expressing α7 receptor) is given as “not strongly affected”.

For `CCCCC[C@@H]1CC[C@@H](C)[C@@H]2CCCN12` [(-)-209B, (5S,8R,9S)-(-)-8-Methyl-5-pentyloctahydroindolizine], in experiment [3], the “mode of action at nicotinic receptors” value was “noncompetitive nicotinic blockers”.
